This is an account of results in PMC3981761, “A New Assay for Determining Ganglioside Sialyltransferase Activities Lactosylceramide-2,3-Sialyltransferase (SAT I) and Monosialylganglioside-2,3-Sialyltransferase (SAT IV)” (PLoS ONE, 2014).

The test system of the assay is T1, recombinant α2,3-(O)-sialyltransferase (EC 2.4.99.4), rat liver.
T1 construct: gene St3gal2; recombinant commercial enzyme (EMD Bioscience), originating from rat liver
The experiment in a line: HPLC with fluorescence detection of BODIPY-GD1a formed. The class given is biochemical. As to conditions: BODIPY-GM1 constant at 13 μM, pH 6, Mes, Triton, 37°C, 1 h; donor substrate.

Broadly, the Km is the substrate concentration at which the rate is half of its maximum. Take `CC(=O)N[C@H]1[C@H]([C@H](O)[C@H](O)CO)O[C@](OP(=O)(O)OC[C@H]2O[C@@H](n3ccc(N)nc3=O)[C@H](O)[C@@H]2O)(C(=O)O)C[C@@H]1O` [CMP-NeuAc]: the Km came to 23.4 ± 0.1 µM.
